# Source: patent US20080153796A1, “Promotion of wound contraction” (RENOVO LIMITED, priority 2006, published 2008)
# Assays:
# [1] = system: full thickness cutaneous excisional wounds (punch biopsies); experiment: Wound width three days after punch biopsies in human volunteers (histological assessment); assay type: in vivo; conditions: day 3; for average wound width: single intradermal injection 10-30 min before 3 mm punch biopsy
# From the text: A single site, double-blind study was undertaken to illustrate the efficacy of medicaments of the invention in promoting contraction of punch biopsy wounds in healthy male and post-menopausal female subjects. The control treatments used in this study were Placebo (vehicle) and Standard Care (moist wound healing dressings).
# 44 healthy subjects were recruited to the study, of whom, 40 were healthy males (aged 18-75years) and 4 were post-menopausal females (aged 53-69 years). The average age of subjects recruited to this study was 42 years. The post-menopausal status of female subjects was confirmed by quantification of serum levels of estradiol and follicle stimulating hormone (FSH). Serum levels of estradiol were required to be <90 pmol/L, and follicle stimulating hormone levels >31 IU/L.
# Before wounding, each subject received either a medicament of the invention (providing a 100 μl intradermal injection of a solution comprising 400 ng of 17β-oestradiol in a diluent comprising PBS and 5% v/v ethanol), or a control medicament (two used, providing a 100 μl intradermal injection of a solution comprising either 20 ng or 100 ng respectively of 17β-oestradiol in a diluent comprising PBS and 5% v/v ethanol). The experimental medicaments (either of the invention or control) were administered intradermally as a single dose at a volume of 100 μl per wound site, 10-30 minutes before wounding to sites on the upper, inner aspect of the arm. This administration was sufficient to prophylactically “prime” an area of 1 cm^2 of unwounded skin prior to wounding. Wounds were made with a 3 mm punch biopsy.
# Biopsy sites were excised, using a 5 mm punch biopsy, three days after wounding. Excised wounds were preserved for histological assessment of wound width. All histological assessments were made using preserved 5 micron-thickness wound sections taken from the widest part of each excised biopsy site. Sections were stained with Haematoxylin and Eosin to aid visualisation of structural features, and measurements made using image analysis software. The wound diameter is the linear total wound diameter of the wound section measured in micrometres. The average wound diameter value was calculated from the 44 wounds of each treatment group.
# [2] = 100 μg of oestradiol applied in a gel; six hours from application; cited from earlier work
# [3] = matrix of U.S. Pat. No. 5,252,334, without drug delivery rate enhancers; cited from earlier work
structure (smiles),measurement,setting,value
C[C@]12CC[C@@H]3c4ccc(O)cc4CC[C@H]3[C@@H]1CC[C@@H]2O [17β-oestradiol],average wound width,"[1]; 20 ng 17β-oestradiol in 100 μl PBS/5% v/v ethanol, control medicament",2626 μm
same,average wound width,"[1]; 100 ng 17β-oestradiol in 100 μl PBS/5% v/v ethanol, control medicament",2612 μm
same,average wound width,"[1]; 400 ng 17β-oestradiol in 100 μl PBS/5% v/v ethanol, medicament of the invention",2480 μm
same,wound width compared to control treated or untreated wounds,"[1]; 400 ng 17β-oestradiol, intradermal",significantly decreased
same,amount of applied oestradiol found in the skin or having passed through the skin,[2],15.7 µg
same,rate of administration per hour per square centimetre of skin,[3],approximately 0.2 μg
